Values of other authors as cited in patent publication US20090312295A1, “Second line treatment of metastatic hormone refractory prostate cancer using satraplatin” (priority 2006, published 2009).

Columns and labels:
[1] = test system: hormone refractory carcinoma of the prostate
[2] = test system: hormone refractory prostate cancer; conditions: symptomatic patients; mitoxantrone combined with prednisone versus prednisone alone
[3] = test system: hormone refractory prostate cancer; conditions: first-line HRPC
[4] = test system: hormone refractory prostate cancer; conditions: estramustine combined with either paclitaxel or docetaxel
[5] = test system: prostate cancer cell lines PC-3, DU 145 and LNCaP
LNCaP cells = conditions: 42 hours, 12 μM satraplatin or 0.7 μM JM-118
[6] = test system: human tumor cell lines with different sensitivities to cisplatin
[7] = sequential schedules
[8] = test system: prostate carcinoma models; conditions: in vivo
[9] = test system: Schizosaccharomyces pombe; conditions: panel of 23 yeast strains, mutants in genes affecting radiation response
[10] = test system: mismatch repair-proficient and mismatch repair-deficient cell lines
[11] = test system: hormone refractory prostate cancer; conditions: 120 mg/m^2 per day for 5 days every 4 weeks, single agent
[12] = test system: H460 human non-small cell lung carcinoma (NSCLC); conditions: H460 xenografted in nude mice
[13] = test system: human ovarian carcinoma xenograft models; conditions: oral versus intravenous cisplatin and carboplatin
[14] = test system: ovarian cancer carcinoma cell lines; conditions: panel of ovarian carcinoma cell lines

N.N.[Cl][Pt][Cl] [cisplatin]
response rates to single agent ([1]; measurable disease, several trials): generally low or poor | efficacy in patients with metastatic prostatic carcinoma ([1]; phase II trial (Qazi & Khandekar)): not effective

C[C@]12C=CC(=O)C=C1CC[C@@H]1[C@@H]2C(=O)C[C@@]2(C)[C@H]1CC[C@]2(O)C(=O)CO [prednisone alone, prednisone]
palliative response using pain response criteria [2]: 12% | Progression-free survival [3]: 2.5 months | patients with >50% decrease in prostate specific antigen (PSA) [3]: 8.7% | Median overall survival ([3]; 50 randomized patients): 11.9 months

C[C@]12CC[C@@H]3c4ccc(OC(=O)N(CCCl)CCCl)cc4CC[C@H]3[C@@H]1CC[C@@H]2O [estramustine, Estramustine]
patients with decrease of >50% in serum PSA levels [4]: > 50% | tolerability [4]: well tolerated

N.NC1CCCCC1.[Cl-].[Cl-].[Pt+2] [JM118, reference compound]
result of treatment of prostate cancer cells [5]: tumor cell kill | PSA mRNA transcription (LNCaP cells): 90 % of control | cell number (LNCaP cells): 61 % of control | secreted PSA protein level (LNCaP cells): 61 % of control | circumvention of resistance to cisplatin [6]: can partially circumvent intrinsic and acquired resistance to cisplatin | in vitro anticancer activity in combination with erlotinib, paclitaxel or 5-FU [7]: synergistic in vitro anticancer activity

CC(=O)[O][Pt]([NH2])([Cl])([Cl])([NH]C1CCCCC1)[O]C(C)=O [satraplatin, bis(acetato) ammine dichloro (cyclohexylamine) platinum (IV)]
antitumor activity of combination with docetaxel [8]: synergistic antitumor activity | antitumor activity of combination with paclitaxel [8]: synergistic antitumor activity | result of treatment of prostate cancer cells [5]: tumor cell kill | sensitivity of cell lines to satraplatin ([5]; androgen-insensitive PC-3 and DU 145 versus androgen-sensitive LNCaP): more sensitive | PSA mRNA transcription (LNCaP cells): 90 % of control | cell number (LNCaP cells): 56 % of control | secreted PSA protein level (LNCaP cells): 58 % of control | change in sensitivity of mutants [9]: none of the mutants demonstrated an appreciable change in sensitivity | circumvention of resistance to cisplatin [6]: can partially circumvent intrinsic and acquired resistance to cisplatin | platinum-DNA adduct levels compared to cisplatin ([6]; equimolar basis): lower levels of platinum-DNA adducts | radiopotentiation (human lung cancer cells): can potentiate the effects of radiation | sensitivity, mismatch repair-proficient versus -deficient cell lines [10]: no difference in sensitivity | activity in HRPC [11]: moderate activity | toxicity [11]: significant treatment-related toxicities | antitumor activity of combination with docetaxel [12]: synergistic antitumor activity | antitumor activity of combination with paclitaxel [12]: antitumor activity | efficacy of orally administered satraplatin [13]: comparable to that of cisplatin and carboplatin administered intravenously | cytotoxicity compared with cisplatin [14]: significantly more cytotoxic than cisplatin

O=C1c2c(O)ccc(O)c2C(=O)c2c(NCCNCCO)ccc(NCCNCCO)c21 [Mitoxantrone]
palliative response using pain response criteria [2]: 29%
